Measurements from PubChem BioAssay AID330 (DTP/NCI, 2004).
Where “and” joins values, the source holds several entries; their conditions need not be identical. Equal entries are not always repeated. Inconclusive results and toxic doses are left out. How the source made its calls: active means survival T/C of 150% or more; inactive means T/C below 125% in these data.

Test system: P388 leukemia ip, CD2F1 mice, survival T/C
Test: NCI In Vivo Anticancer Drug Screen. Data for tumor model P388 Leukemia (intraperitoneal) in CD2F1 (CDF1) mice
Details: endpoint: median survival time, higher = longer survival
In short: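 Mice carrying the transplanted tumor received test compound or vehicle. Survival was recorded in each group, and the value is the treated-group measurement divided by that of the vehicle-treated control group.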

[1] = dose: 50.0 mg/kg/injection, schedule: Q01DX005 (ip), vehicle: saline with Tween-80
[2] = dose: 100.0 mg/kg/injection, schedule: Q01DX005 (ip), vehicle: saline with Tween-80
[3] = dose: 200.0 mg/kg/injection, schedule: Q01DX005 (ip), vehicle: saline with Tween-80
[4] = dose: 100.0 mg/kg/injection, schedule: Q04DX003 (ip), vehicle: Klucel (hydroxypropylcellulose) (HPC)
[5] = dose: 100.0 mg/kg/injection, schedule: Q04DX003 (ip), vehicle: saline
[6] = dose: 200.0 mg/kg/injection, schedule: Q04DX003 (ip), vehicle: saline
[7] = dose: 100.0 mg/kg/injection, schedule: Q01DX009 (ip), vehicle: saline with Tween-80
[8] = dose: 200.0 mg/kg/injection, schedule: Q01DX009 (ip), vehicle: saline with Tween-80
[9] = dose: 50.0 mg/kg/injection, schedule: Q01DX009 (ip), vehicle: Klucel (hydroxypropylcellulose) (HPC)
[10] = dose: 100.0 mg/kg/injection, schedule: Q01DX009 (ip), vehicle: Klucel (hydroxypropylcellulose) (HPC)
[11] = dose: 200.0 mg/kg/injection, schedule: Q01DX009 (ip), vehicle: Klucel (hydroxypropylcellulose) (HPC)

Measured: T/C

O=C1NC(O)c2cc([N+](=O)[O-])ccc2O1 (centres undefined)
inactive: [1] 100 % of control and 107 % of control | [2] 102 % of control and 115 % of control | [3] 100 % of control and 120 % of control

S=c1nn[nH]n1-c1ccccc1.[Cd]
inactive: dose: 3.13 mg/kg/injection, schedule: Q01DX009 (ip), vehicle: saline with Tween-80 98 % of control | dose: 6.25 mg/kg/injection, schedule: Q01DX009 (ip), vehicle: saline with Tween-80 94 % of control

CCCCCCCCCCCCOCC[N+](CCO)(CCO)Cc1ccccc1
inactive: dose: 0.25 mg/kg/injection, schedule: Q01DX009 (ip), vehicle: saline 100 % of control | dose: 0.5 mg/kg/injection, schedule: Q01DX009 (ip), vehicle: saline 100 % of control | dose: 1.0 mg/kg/injection, schedule: Q01DX009 (ip), vehicle: saline 100 % of control

O=C(NC1CCOC1=O)c1ccc(N=C=S)cc1 (centres undefined)
inactive: dose: 25.0 mg/kg/injection, schedule: Q04DX003 (ip), vehicle: Klucel (hydroxypropylcellulose) (HPC) 104 % of control | dose: 50.0 mg/kg/injection, schedule: Q04DX003 (ip), vehicle: Klucel (hydroxypropylcellulose) (HPC) 107 % of control | [4] 101 % of control and 106 % of control

O=C(O)C(Cc1ccsc1)NC(=O)C(F)(F)F (centres undefined)
inactive: dose: 50.0 mg/kg/injection, schedule: Q01DX009 (ip), vehicle: saline + alcohol 94 % of control | dose: 100.0 mg/kg/injection, schedule: Q01DX009 (ip), vehicle: saline + alcohol 99 % of control | dose: 200.0 mg/kg/injection, schedule: Q01DX009 (ip), vehicle: saline + alcohol 98 % of control

O=c1oc(-c2ccccc2)nc2cc(Cl)ccc12
inactive: [4] 100 % of control | dose: 200.0 mg/kg/injection, schedule: Q04DX003 (ip), vehicle: Klucel (hydroxypropylcellulose) (HPC) 90 % of control | dose: 400.0 mg/kg/injection, schedule: Q04DX003 (ip), vehicle: Klucel (hydroxypropylcellulose) (HPC) 107 % of control

COC(=O)CNC(=O)C(Cc1c[nH]c2ccccc12)NC(=O)OC(C)(C)C (centres undefined)
inactive: dose: 12.5 mg/kg/injection, schedule: Q01DX009 (ip), vehicle: other 96 % of control | dose: 25.0 mg/kg/injection, schedule: Q01DX009 (ip), vehicle: other 89 % of control | dose: 50.0 mg/kg/injection, schedule: Q01DX009 (ip), vehicle: other 89 % of control | dose: 100.0 mg/kg/injection, schedule: Q01DX009 (ip), vehicle: other 90 % of control | dose: 200.0 mg/kg/injection, schedule: Q01DX009 (ip), vehicle: other 97 % of control

O=CNNc1nn2cnnc2c2ccccc12
inactive: dose: 50.0 mg/kg/injection, schedule: Q01DX009 (ip), vehicle: saline 97 % of control | dose: 100.0 mg/kg/injection, schedule: Q01DX009 (ip), vehicle: saline 94 % of control | dose: 200.0 mg/kg/injection, schedule: Q01DX009 (ip), vehicle: saline 102 % of control

Nc1c[n+]([O-])ccn1
inactive: [5] 101 % of control | [6] 98 % of control | dose: 400.0 mg/kg/injection, schedule: Q04DX003 (ip), vehicle: saline 93 % of control

COc1ccc(CCNC(=O)Cc2ccc(OC)c(OC)c2)cc1OC
inactive: [7] 100 % of control | [8] 106 % of control | dose: 400.0 mg/kg/injection, schedule: Q01DX009 (ip), vehicle: saline with Tween-80 123 % of control

CCN(CC)CC(COC)Oc1cc(C)ccc1C(C)C (centres undefined)
inactive: dose: 50.0 mg/kg/injection, schedule: Q04DX003 (ip), vehicle: saline with Tween-80 104 % of control | dose: 100.0 mg/kg/injection, schedule: Q04DX003 (ip), vehicle: saline with Tween-80 95 % of control | dose: 200.0 mg/kg/injection, schedule: Q04DX003 (ip), vehicle: saline with Tween-80 109 % of control

COc1cc(/C=C2/SC(=S)NC2=O)cc(OC)c1OC
inactive: dose: 25.0 mg/kg/injection, schedule: Q01DX009 (ip), vehicle: saline with Tween-80 100 % of control | dose: 50.0 mg/kg/injection, schedule: Q01DX009 (ip), vehicle: saline with Tween-80 102 % of control | [7] 96 % of control | [8] 96 % of control

CCO/C(C)=N/n1c(C)nc2[nH]ncc2c1=O
inactive: dose: 60.0 mg/kg/injection, schedule: Q01DX005 (ip), vehicle: saline with Tween-80 99 % of control | dose: 120.0 mg/kg/injection, schedule: Q01DX005 (ip), vehicle: saline with Tween-80 106 % of control | dose: 240.0 mg/kg/injection, schedule: Q01DX005 (ip), vehicle: saline with Tween-80 106 % of control

CCNCC1c2ccccc2-c2nc3ccccc3nc2-c2ccccc21
inactive: dose: 100.0 mg/kg/injection, schedule: Q04DX002 (ip), vehicle: saline with Tween-80 102 % of control | dose: 200.0 mg/kg/injection, schedule: Q04DX002 (ip), vehicle: saline with Tween-80 98 % of control

NC(Cc1ccc(O)cc1)C(=O)N/N=C/c1ccc2c(c1)OCO2 (centres undefined)
inactive: [1] 92 % of control | [2] 99 % of control | [3] 103 % of control

CN(C)CC1C2CCC(C2)C1O (centres undefined)
inactive: [1] 98 % of control | [2] 97 % of control | [3] 99 % of control

Nc1ncnc2c1ncn2CC(O)CBr (centres undefined)
inactive: dose: 50.0 mg/kg/injection, schedule: Q01DX005 (ip), vehicle: Klucel (hydroxypropylcellulose) (HPC) 101 % of control | dose: 100.0 mg/kg/injection, schedule: Q01DX005 (ip), vehicle: Klucel (hydroxypropylcellulose) (HPC) 104 % of control | dose: 200.0 mg/kg/injection, schedule: Q01DX005 (ip), vehicle: Klucel (hydroxypropylcellulose) (HPC) 93 % of control

CC12CCC(=O)C=C1CCCC2=O (centres undefined)
inactive: dose: 50.0 mg/kg/injection, schedule: Q04DX003 (ip), vehicle: saline 95 % of control | [5] 100 % of control | [6] 90 % of control

CCCCC1N=CNc2c1ccc1c2[nH]c2ccccc21 (centres undefined)
inactive: dose: 12.5 mg/kg/injection, schedule: Q04DX002 (ip), vehicle: saline with Tween-80 101 % of control | dose: 25.0 mg/kg/injection, schedule: Q04DX002 (ip), vehicle: saline with Tween-80 99 % of control | dose: 50.0 mg/kg/injection, schedule: Q04DX002 (ip), vehicle: saline with Tween-80 111 % of control

CC1=CC(=O)C(/C=C(\C)[N+](=O)[O-])=CC1=O
inactive: dose: 12.5 mg/kg/injection, schedule: Q01DX009 (ip), vehicle: Klucel (hydroxypropylcellulose) (HPC) 97 % of control | dose: 25.0 mg/kg/injection, schedule: Q01DX009 (ip), vehicle: Klucel (hydroxypropylcellulose) (HPC) 99 % of control

CCC1c2ccccc2[C@H]2C(c3ccccc3)=NN(c3ccccc3)[C@H]2N1CC (some centres undefined)
inactive: [1] 100 % of control | [2] 92 % of control | [3] 90 % of control

COc1ccc(C(O)(c2ccccc2)c2ccccc2)c(OC)c1
inactive: [9] 98 % of control | [10] 93 % of control | [11] 95 % of control

CCOC(=O)Nc1nn(-c2ccc3ccccc3n2)c(=O)[nH]1
inactive: [9] 113 % of control | [10] 109 % of control | [11] 118 % of control
